Measured values: US11207308B2, “Pharmaceutical compositions for combination therapy” (PRILENIA NEUROTHERAPEUTICS LTD., priority 2012, dated 2021)
Values joined by “and” are separate entries in the source; they are usually repeats but may differ in a detail not shown here. Equal values may be shown once. “Also recorded” adds a separate entry of the source. Read-outs that look alike come from different tables or passages of the source.

Legend:
striatal dopamine [1] = experiment: Striatal dopamine (DA) tissue level (HPLC/EC), interaction with Tetrabenazine; conditions: percentage of Tetrabenazine control group mean
striatal dopamine [2] = experiment: Striatal dopamine (DA) tissue level (HPLC/EC), dose-response in naive rats; assay type: in vivo, rat; conditions: for DA striatum, dose-response in naive rats: mean ± SEM, percentage of vehicle control group mean
Method: (§1) Rats weighed 160-180 g at the time of arrival.
(§2) The treatment groups consisted of Vehicle (saline; NaCl 0.9% v/w) and ACR16 tested at three doses (11; 33 and 100 μmol/kg).
(§3) KR104: Animals were allocated into five different treatment groups, n=4.
(§4) All compounds were injected s.c. four minutes before start of locomotor activity recording at a volume of 5 ml/kg.
(§5) A digital sonifier (Branson Digital Sonifier 250-D) was used to homogenise tissue from the striatum and limbic region. […] All samples were centrifuged at 10.000 rpm for 10 minutes at +4° C. Cortex tissue was filtered in Munktell filter paper 5.5 cm quality 1 F. Tissue eluates were analysed with respect to tissue concentrations (ng/g tissue) of the monoamine transmitter substances (Norepinephrine (NA), dopamine (DA), 5-hydroxytryptamine (5-HT)) as well as their amine metabolites (normetanephrine (NM), 3-methoxytyramine (3-MT)) and acid metabolites ([…] (DOPAC), 5-hydrocyindoleacetic acid (5-HTAA), homovanillic acid (HVA)) by HPLC separations and electrochemical detection (HPLC/EC). Stock standards (DA, NA, 5-HT, 3-MT, DOPAC, HVA, HIAA, 500 μg/ml) and internal standard (AMDA 500 μg/ml) are prepared once every three months. 5-HT and 5HIAA are dissolved in milliQ water. DA, NA, DOPAC, NM, 3-MT and HVA are dissolved in 0.01 M HCl. 5-HT, 5-HIAA, NM and HVA are kept in fridge; DA, DOPAC, NA and 3-MT are kept in freezer.
(§6) Detection potentials relative to Ag/AgCl reference are 0.45 and 0.60V. […] Detection potentials relative to Ag/AgCl reference are 0.45 and 0.65V.

striatal DOPAC [3] = experiment: Striatal DOPAC tissue level (HPLC/EC), dose-response in naive rats; assay type: in vivo, rat; conditions: mean ± SEM, percentage of vehicle control group mean
Method: as §1, §2, §3, §4, §5, §6

Arc mRNA [4] = experiment: Arc gene expression (Arc mRNA, real-time PCR) in striatum and frontal cortex, dose-response studies; assay type: in vivo, rat
Method: as §1, §4
Reference genes are HPRT and cyclophilin.
Correct PCR products are confirmed by agarose gel electroforesis (2%) PCR products are purified with PCR purification kit from Qiagen (Valencia, Calif., USA). All genes are sequenced at MWG, Germany.
For the data shown in FIG. 6, the reverse transcription and PCR were performed as follows:
Reversed transcription is performed by using a ThermoScript kit (Invitrogen).
cDNA of Arc and two reference genes, hypoxanthine-guanine phosphoribosyltransferase (HPRT) and cyclophilin A, was amplified by real-time PCR in either a triplex reaction (Tetrabenazine studies) or three singleplex reactions (studies with Pridopidine and haloperidol).

Male Sprague-Dawley rats [5] = experiment: Spontaneous locomotor activity, dose-response in drug-naive rats; assay type: in vivo, rat; conditions: for Spontaneous locomotor activity, % of the vehicle control group mean: full hour of recording; for Spontaneous locomotor activity, period 15-60 minutes post dosing (in words) / Spontaneous locomotor activity, initial 15 min (in words): vs vehicle control; for Effect on spontaneous locomotor activity (in words): all doses tested, s.c., 60 min recording; for Spontaneous locomotor activity, initial 15 min (in words): initial 15 min of recording
Method: as §1, §2, §3, §4
During measurements of behavioural activity, a rat is put in a transparent acrylic cage with matted black floor (W×L×H, 41×41×30 cm) which in turn is placed in the activity monitor. […] Two rows are placed along the front and the side of the floor of the cage, at a 90 degree angle, and the third row is placed 10 cm above the floor to measure vertical activity. Photobeam sensors are spaced 2.5 cm apart.

Arc mRNA [6] = experiment: Arc gene expression (Arc mRNA, real-time PCR) in striatum and frontal cortex, interaction with Tetrabenazine
striatal DOPAC [7] = experiment: Striatal DOPAC tissue level (HPLC/EC), interaction with Tetrabenazine; conditions: percentage of Tetrabenazine control group mean
Male Sprague-Dawley rats [8] = conditions: for Locomotor activity, % of Tetrabenazine control mean: full hour of recording
Excerpt: No brain tissue was collected from this experiment. […] Each activity monitor consists of a quadratic metal frame equipped with photobeam sensors. […] Each activity monitor is equipped with three rows of infrared photobeam sensors, each row consisting of 16 sensors. […] Photobeam sensors are spaced 2.5 cm apart. Each activity monitor is fitted in an identical sound and light attenuating box (W×L×H—55×55×45) containing a weak house light and a fan. The computer software is written using object oriented programming (LabVIEW™, National instruments, Austin, Tex., USA). Behavioural data from each activity monitor, representing the position (horizontal center of gravity and vertical activity) of the animal at each time, are recorded at a sampling frequency of 25 Hz and collected using a custom written LABView™ application. The data from each recording session are stored and analyzed with respect to distance travelled. Each behavioural recording session lasts 60 min, starting approximately 4 min after the injection of test compound. The results are presented as counts/60 minutes, counts/45 minutes or counts/15 minutes, in arbitrary length units. Statistical comparisons are carried out using Student's t-test against the control group.

[9] = 33 μmol/kg s.c. together with Tetrabenazine 0.64 mg/kg
[10] = 100 μmol/kg s.c. together with Tetrabenazine 0.64 mg/kg
[11] = 33 μmol/kg s.c. coadministered with Tetrabenazine 0.64 mg/kg
[12] = 100 μmol/kg s.c. coadministered with Tetrabenazine 0.64 mg/kg
[13] = 0.64 mg/kg s.c., vs vehicle control

CCCN1CCC(c2cccc(S(C)(=O)=O)c2)CC1 [Pridopidine, 4-(3-Methanesulfonyl-phenyl)-1-propyl-piperidine]
DA striatum, interaction with Tetrabenazine (striatal dopamine [1]; [9]): 91 ± 11%
DA striatum, interaction with Tetrabenazine (striatal dopamine [1]; [10]): 98 ± 8%
DA striatum, dose-response in naive rats (striatal dopamine [2]; 11 μmol/kg s.c.): 104 ± 3%
DA striatum, dose-response in naive rats (striatal dopamine [2]; 33 μmol/kg s.c.): 101 ± 3%
DA striatum, dose-response in naive rats (striatal dopamine [2]; 100 μmol/kg s.c.): 73 ± 4 %
DOPAC striatum, dose-response in naive rats (striatal DOPAC [3]; 11 μmol/kg s.c.): 117 ± 5 %
DOPAC striatum, dose-response in naive rats (striatal DOPAC [3]; 33 μmol/kg s.c.): 178 ± 7 %
DOPAC striatum, dose-response in naive rats (striatal DOPAC [3]; 100 μmol/kg s.c.): 236 ± 17 %
Arc mRNA in the frontal cortex, % of the vehicle control group mean (Arc mRNA [4]; 33 μmol/kg s.c.): 149%
Arc mRNA in the striatum, % of the control group mean (Arc mRNA [4]; 33 μmol/kg s.c.): 168%
Arc mRNA in the frontal cortex, % of the vehicle control group mean (Arc mRNA [4]; 100 μmol/kg s.c.): 222%
Arc mRNA in the striatum, % of the control group mean (Arc mRNA [4]; 100 μmol/kg s.c.): 253%
Spontaneous locomotor activity, % of the vehicle control group mean (Male Sprague-Dawley rats [5]; 33 μmol/kg s.c.): 138%
Spontaneous locomotor activity, period 15-60 minutes post dosing (in words) (Male Sprague-Dawley rats [5]): no significant effects were observed
Effect on spontaneous locomotor activity (in words) (Male Sprague-Dawley rats [5]): no inhibitory effect on spontaneous locomotor activity
Spontaneous locomotor activity, initial 15 min (in words) (Male Sprague-Dawley rats [5]): a significant increase (P<0.05) was seen for the 11 μmol/kg Pridopidine dose group
Frontal cortex Arc mRNA, % of the Tetrabenazine control group mean (Arc mRNA [6]; [11]): 125%
Striatal Arc, % of the Tetrabenazine control group mean (Arc mRNA [6]; [11]): 144%
Frontal cortex Arc mRNA, % of the Tetrabenazine control group mean (Arc mRNA [6]; [12]): 193%
Striatal Arc, % of the Tetrabenazine control group mean (Arc mRNA [6]; [12]): 207%
DOPAC striatum, interaction with Tetrabenazine (striatal DOPAC [7]; [9]): 123 ± 8 ^ %
DOPAC striatum, interaction with Tetrabenazine (striatal DOPAC [7]; [10]): 155% and 155 ± 4 %
Locomotor activity, % of Tetrabenazine control mean (Male Sprague-Dawley rats [8]; 33 μmol/kg s.c. combined with Tetrabenazine 0.64 mg/kg): 135%
Locomotor activity, % of Tetrabenazine control mean (Male Sprague-Dawley rats [8]; 100 μmol/kg s.c. combined with Tetrabenazine 0.64 mg/kg): 137%
Locomotor activity in Tetrabenazine treated rats, 15-60 min (in words) (Male Sprague-Dawley rats [8]; 15-60 min period, combined with Tetrabenazine 0.64 mg/kg, vs Tetrabenazine control): this reversing effect reached significance for the Pridopidine 100 μmol/kg dose group
Effect on Tetrabenazine induced locomotor activity reduction (in words) (Male Sprague-Dawley rats [8]; combined with Tetrabenazine 0.64 mg/kg s.c.): reversed the behavioural inhibition induced by Tetrabenazine
Locomotor activity in Tetrabenazine treated rats, 0-15 min (in words) (Male Sprague-Dawley rats [8]; first 15 min, combined with Tetrabenazine 0.64 mg/kg, vs Tetrabenazine control): this reversing effect reached significance for the Pridopidine 100 μmol/kg dose group

COc1cc2c(cc1OC)C1CC(=O)C(CC(C)C)CN1CC2 (stereo not drawn) [Tetrabenazine, (SS,RR)-3-Isobutyl-9,10-dimethoxy-1,3,4,6,7,11b-hexahydro-pyrido[2,1-a]isoquinolin-2-one]
DA striatum, dose-response in naive rats (striatal dopamine [2]; 0.37 mg/kg s.c.): 48 ± 2 %
DA striatum, dose-response in naive rats (striatal dopamine [2]; 0.64 mg/kg s.c.): 33 ± 3 %
Striatal dopamine, % of vehicle control group mean (striatal dopamine [2]; 0.64 mg/kg, the dose used in the interaction experiments, throughout the studies performed): approximately 50%
DA striatum, dose-response in naive rats (striatal dopamine [2]; 1.1 mg/kg s.c.): 20 ± 2 %
DOPAC striatum, dose-response in naive rats (striatal DOPAC [3]; 0.37 mg/kg s.c.): 144 ± 8 %
DOPAC striatum, dose-response in naive rats (striatal DOPAC [3]; 0.64 mg/kg s.c.): 208 ± 14 %
DOPAC striatum, dose-response in naive rats (striatal DOPAC [3]; 1.1 mg/kg s.c.): 263 ± 19 %
Arc mRNA in the frontal cortex, % of control group mean (Arc mRNA [4]; 0.64 mg/kg s.c., trend, p=0.14): 83%
Frontal cortex Arc mRNA, Tetrabenazine alone in the interaction experiments (in words) (Arc mRNA [4]; [13]): significant decrease; also recorded: tended to decrease
Striatal Arc mRNA, Tetrabenazine alone in the interaction experiments (in words) (Arc mRNA [4]; [13]): no significant effect
Arc mRNA in the frontal cortex, % of the vehicle control group mean (Arc mRNA [4]; 1.1 mg/kg s.c.): 66%
Arc mRNA in the striatum, % of the vehicle control group mean (Arc mRNA [4]; 1.1 mg/kg s.c.): 147%
Locomotor activity, Tetrabenazine control group vs. vehicle treated controls (in words) (Male Sprague-Dawley rats [5]; 0.64 mg/kg s.c., full hour (P<0.001), 0-15 min and 15-60 min (P<0.01), interaction experiment with Pridopidine): significant decrease
Spontaneous locomotor activity, % of the vehicle control group mean (Male Sprague-Dawley rats [5]; 1.1 mg/kg s.c.): 40%
Spontaneous locomotor activity, period 15-60 minutes post dosing (in words) (Male Sprague-Dawley rats [5]): significant effects (P<0.05) were observed at 0.64 and 1.1 mg/kg
Effect on spontaneous locomotor activity (in words) (Male Sprague-Dawley rats [5]): dose dependently inhibited spontaneous locomotor activity
Spontaneous locomotor activity, initial 15 min (in words) (Male Sprague-Dawley rats [5]): significant reductions (P<0.05) were seen both for the 1.1 and 0.37 mg/kg
